One block for each compound: values may come before it.
Conditions: pH 7.4

SMILES: CC(C)CC(O)C(O)C(CC1CCCCC1)NC(=O)C(Cc1cscn1)NC(=O)C(CC(=O)CN1CCCOCC1)Cc1ccccc1 (stereo not given)
logD: 3.91

SMILES: COc1ccc(CC(CC(=O)N2CCN(C)CC2)C(=O)NC(Cc2cscn2)C(=O)NC(CC2CCCCC2)C(O)C(O)CC(C)C)cc1 (stereo not given)
logD: 3.38

SMILES: CC(C)CC(O)C(O)C(CC1CCCCC1)NC(=O)C(NC(=O)C(CC(=O)N1CCN(C)CC1)Cc1ccccc1)c1cc[nH]n1 (stereo not given)
logD: 4.02

SMILES: CC(C)CC(O)C(O)C(CC1CCCCC1)NC(=O)C(NC(=O)C(CC(=O)N1CCN(C)CC1)Cc1ccccc1)c1c[nH]cn1 (stereo not given)
logD: 1.66

SMILES: CC(C)CC(O)C(CC1CCCCC1)NC(=O)C(CN=[N+]=[N-])NC(=O)C(CC(=O)N1CCCOCC1)Cc1ccccc1 (stereo not given)
logD: 4.1

SMILES: CC(C)CC(O)C(CC1CCCCC1)NC(=O)C(Cc1cn(C)cn1)NC(=O)C(CC(=O)N1CCOCC1)Cc1ccccc1 (stereo not given)
logD: 3.71

SMILES: CC(C)CC(O)C(CC1CCCCC1)NC(=O)C(Cn1ccnc1)NC(=O)C(CC(=O)N1CCOCC1)Cc1ccccc1 (stereo not given)
logD: 3.79

Second part, the compound after the results:

logD: 4.01
SMILES: CC(C)CC(O)C(CC1CCCCC1)NC(=O)C(Cc1cc[nH]n1)NC(=O)C(CC(=O)N1CCCOCC1)Cc1ccccc1 (stereo not given)

logD: 3.51
SMILES: CC(C)CC(O)C(CC1CCCCC1)NC(=O)C(Cc1c[nH]cn1)NC(=O)C(CC(=O)N1CCOCC1)Cc1ccccc1 (stereo not given)

logD: 4.27
SMILES: CC(C)CC(O)C(CC1CCCCC1)NC(=O)C(Cc1cscn1)NC(=O)C(CC(=O)N1CCOCC1)Cc1ccccc1 (stereo not given)
